Residues, ends and D or L forms follow the SMILES beside them. *: point of attachment. Cbz = O=C(OCc1ccccc1)*; CH2F = FC*
Assays:
Caspase-3 = biological target: T1, Caspase-3 (Homo sapiens, UniProt P42574); experiment: Inhibition of recombinant human caspase-3 activity using Ac-DEVD-AMC as substrate preincubated for 10 mins by fluorescence assay
T1 sequence (P42574 whole entry): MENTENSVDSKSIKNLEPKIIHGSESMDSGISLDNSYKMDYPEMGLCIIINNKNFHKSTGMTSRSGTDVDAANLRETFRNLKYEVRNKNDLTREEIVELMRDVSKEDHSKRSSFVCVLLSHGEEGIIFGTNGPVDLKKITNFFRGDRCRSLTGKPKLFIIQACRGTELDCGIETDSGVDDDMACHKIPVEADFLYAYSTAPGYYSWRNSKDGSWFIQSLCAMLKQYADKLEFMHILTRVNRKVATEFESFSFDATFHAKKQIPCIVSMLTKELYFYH

Caspase-7 = biological target: T2, Caspase-7 (Homo sapiens, UniProt P55210); experiment: Inhibition of recombinant human caspase-7 activity using Ac-DEVD-AMC as substrate preincubated for 10 mins by fluorescence assay
T2 sequence (P55210 whole entry): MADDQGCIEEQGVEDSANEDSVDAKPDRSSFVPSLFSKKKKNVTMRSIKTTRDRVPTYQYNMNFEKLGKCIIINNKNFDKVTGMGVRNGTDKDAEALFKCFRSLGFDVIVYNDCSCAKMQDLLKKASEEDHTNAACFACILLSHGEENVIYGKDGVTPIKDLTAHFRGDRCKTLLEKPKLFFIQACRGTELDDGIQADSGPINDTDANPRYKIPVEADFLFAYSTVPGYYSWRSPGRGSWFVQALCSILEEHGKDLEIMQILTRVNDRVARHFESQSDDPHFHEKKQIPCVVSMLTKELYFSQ

Jurkat [1] = experiment: Antiapoptotic activity in camptothecin-induced human Jurkat cells assessed as apoptotic cells at 10 uM after 2 hrs using Annexin V-FITC and 7-AAD by flow cytometry relative to control; type: functional
Jurkat [2] = experiment: Antiapoptotic activity in camptothecin-induced human Jurkat cells assessed as apoptotic cells at 50 uM after 2 hrs using Annexin V-FITC and 7-AAD by flow cytometry relative to control; type: functional

| SMILES | IC50 (Caspase-3) [nM] | IC50 (Caspase-7) [nM] | Activity (Jurkat [1]) [%] | Activity (Jurkat [2]) [%] |
| --- | --- | --- | --- | --- |
| O=C(CCc1ccccc1)n1sc2ccccc2c1=O | 108 | 112 |  |  |
| O=C(Cc1ccc(O)cc1)n1sc2ccccc2c1=O | 326 | 330 |  |  |
| O=C(CCC(=O)n1sc2ccccc2c1=O)c1cccs1 | 235 | 56.7 |  |  |
| O=C(Cc1ccc(Cl)cc1)n1sc2ccccc2c1=O | 215 | 586 |  |  |
| O=C(Cc1cccs1)n1sc2ccccc2c1=O | 32200 | 18100 |  |  |
| O=C(Cc1cccc(Cl)c1)n1sc2ccccc2c1=O | 272 | 607 |  |  |
| O=C(CCc1ccc(Cl)cc1)n1sc2ccccc2c1=O | 56.9 | 72.7 |  |  |
| COC(=O)C[C@H](NC(=O)[C@H](C)NC(=O)[C@@H](NC(=O)OCc1ccccc1)C(C)C)C(=O)CF (Cbz-Val-Ala-Asp(OMe)-CH2F) |  |  | 40.2 |  |
| COc1ccc(CC(=O)n2sc3ccccc3c2=O)cc1 | 1340 | 213 |  |  |
| O=C(CCc1ccccc1Cl)n1sc2ccccc2c1=O | 47.3 | 158 |  |  |
| Cc1cccc(CC(=O)n2sc3ccccc3c2=O)c1 | 339 | 184 |  |  |
| Cc1ccc(CCCC(=O)n2sc3ccccc3c2=O)cc1 | 266 | 97.9 |  |  |
| COc1ccccc1CC(=O)n1sc2ccccc2c1=O | 219 | 207 |  |  |
| Cc1ccc(CCC(=O)n2sc3ccccc3c2=O)cc1 | 119 | 72.5 |  |  |
| Cc1ccc(CC(=O)n2sc3ccccc3c2=O)cc1 | 214 | 182 |  |  |
| O=C(Cc1ccc(-c2ccccc2)cc1)n1sc2ccccc2c1=O | 141 | 115 |  |  |
| O=C(Cc1ccccc1F)n1sc2ccccc2c1=O | 186 | 123 |  |  |
| O=C(CCc1ccccc1F)n1sc2ccccc2c1=O | 130 | 86.9 |  |  |
| O=C(CCc1ccc(F)cc1)n1sc2ccccc2c1=O | 112 | 59.7 |  |  |
| O=C(Cc1ccccc1Cl)n1sc2ccccc2c1=O | 193 | 145 |  |  |

| SMILES | IC50 (Caspase-3) [nM] | IC50 (Caspase-7) [nM] | Activity (Jurkat [1]) [%] | Activity (Jurkat [2]) [%] |
| --- | --- | --- | --- | --- |
| COc1ccccc1CCC(=O)n1sc2ccccc2c1=O | 137 | 63.7 |  |  |
| O=C(CCCc1ccccc1)n1sc2ccccc2c1=O | 182 | 166 |  |  |
| O=C(CCCc1cccs1)n1sc2ccccc2c1=O | 127 | 115 |  |  |
| O=C(CCCCc1ccccc1)n1sc2ccccc2c1=O | 306 | 101 |  |  |
| O=C(Cc1ccccc1)n1sc2ccccc2c1=O | 292 | 269 |  |  |
| COc1cccc(CC(=O)n2sc3ccccc3c2=O)c1 | 548 | 211 |  |  |
| Cc1cccc(CCC(=O)n2sc3ccccc3c2=O)c1 | 95 | 109 |  |  |
| O=C(Nc1ccc(N2CCOCC2)cc1)n1sc2ccccc2c1=O | 106 | 164 |  |  |
| O=C(Cc1cccc(F)c1)n1sc2ccccc2c1=O | 899 | 458 |  |  |
| CC(=O)N[C@@H](CC(=O)O)C(=O)N[C@@H](CCC(=O)O)C(=O)N[C@H](C(=O)N[C@H](C=O)CC(=O)O)C(C)C |  | 155 |  |  |
| COc1ccc(CCCC(=O)n2sc3ccccc3c2=O)cc1 | 390 | 74.9 |  |  |
| COc1ccc(CCC(=O)n2sc3ccccc3c2=O)cc1 | 49.7 | 51.9 | 37.5 | 100 |
| O=C(Cc1ccc(Cl)c(Cl)c1)n1sc2ccccc2c1=O | 654 | 198 |  |  |
| Cc1ccccc1CC(=O)n1sc2ccccc2c1=O | 200 | 370 |  |  |
| COc1cccc(CCC(=O)n2sc3ccccc3c2=O)c1 | 34.9 | 54 | 36.6 | 100 |
| O=C(Cc1ccc2ccccc2c1)n1sc2ccccc2c1=O | 265 | 297 |  |  |
| O=C(Cc1ccc2c(c1)CCO2)n1sc2ccccc2c1=O | 222 | 185 |  |  |
| O=C(Cc1ccc(F)cc1)n1sc2ccccc2c1=O | 1200 | 608 |  |  |
| O=C(CCc1cccc(F)c1)n1sc2ccccc2c1=O | 87.7 | 78.4 |  |  |
